Results from patent publication US7501281B2, “Compositions, methods and kits related to thrombin, Notch signaling and stamatogenesis and growth of stem cells” (Maine Medical Center Research Institute, priority 2003, dated 2009).
Marks after values point to notes of the source that are not given here.

B1: sDl1: soluble non-transmembrane form of the Notch ligand Delta1 (protein)
chain: QVWSSGVFELKLQEFVNKKGLLGNRNCCRGGAGPPPCACRTFFRVCLKHYQASVSPEPPCTYGSAVTPVLGVDSFSLPDGGGADSAFSNPIRFPFGFTWPGTFSLIIEALHTDSPDDLATENPERLISRLATQRHLTVGEEWSQDLHSSGRTDLKYSYRFVCDEHYYGEGCSVFCRPRDDAFGHFTCGERGEKVCNPGWKGPYCTEPICLPGCDEQHGFCDKPGECKCRVGWQGRYCDECIRYPGCLHGTCQQPWQCNCQEGWGGLFCNQDLNYCTHHKPCKNGATCTNTGQGSYTCSCRPGYTGATCELGIDECDPSPCKNGGSCTDLENSYSCTCPPGFYGKICELSAMTCADGPCFNGGRCSDSPDGGYSCRCPVGYSGFNCEKKIDYCSSSPCSNGAKCVDLGDAYLCRCQAGFSGRHCDDNVDDCASSPCANGGTCRDGVNDFSCTCPPGYTGRNCSAPVSRCEHAPCHNGATCHERGHRYVCECARGYGGPNCQFLLPELPPGPAVVDLTEKLEGQGGPFPW
modifications: left off: small tags and cut ends
notes: soluble non-transmembrane form of the Notch ligand Delta1

Key:
[1] = test system: FGF1.A transcript in murine NCSC; experiment: RT-PCR analysis of FGF1.A mRNA expression in NCSC; format: cell-based; conditions: 48 hours; 7.5 nM sJ1, 5.0 nM sDl1, 10 μg/ml α-thrombin or 5 μg/ml TRAP
[2] = test system: clonal cortical neurospheres; experiment: Cortical neurosphere model, secondary sphere formation; format: cell-based, murine; conditions: for F/SP × 10^2 / Cells/Founder (F) / Secondary Spheres (SP): day 10; for Cells/Founder (F): mean±SD; for Secondary Spheres (SP): from dissociation of founder spheres, mean±SD of three experiments; for secondary spheres per primary sphere: primary spheres grown 2 weeks with the factor, secondary spheres in standard media
From the text: The E14 prefrontal ventricular zone was dissected and plated at a clonal neurosphere-forming density in the presence of either sJ1, sDl1, thrombin, TRAP or no supplementation. After 2 weeks, the clones were dissociated to single cells and secondary spheres were generated using standard media with no supplementation (Reynolds et al., 1992, J. Neurosci. 12:4565-4574).
Secondary spheres (SP) are formed from the dissociation of founder (F) spheres. The data presented are the number of colonies (mean±SD of three experiments). (*=p≦0.05).

[3] = test system: neurosphere cultures and p75+/P0- neural crest stem cells; experiment: RT-PCR of self-renewal transcripts Nestin, Nucleostemin and Bmi1; format: cell-based, murine; conditions: for relative expression of Nestin, Nucleostemin and Bmi1 transcripts: primary and secondary neurosphere cultures
Procedure: Clonal NCSC neurospheres were generated and allowed to expand for 10 days in either 7.5 nM sJ1, 5 nM sD1, 5 μg/ml α-thrombin, and no additive (control) (FIG. 13A) as described elsewhere herein. Clonal NCSC neurospheres were generated in a feeder-layer coculture system using a monolayer of stable full-length (FL) Jagged1 NIH 3T3 cell transfectants or insert-less NIH 3T3 cell transfectants and treated with either 5 μg/ml thrombin or without further supplementation (control) (FIG. 13B). The results are presented as representative photomicrographs of the spheres obtained under each condition after 14 days of treatment. […] Clonal neurospheres were generated in the presence of either 5 μg/ml α-thrombin, 7.5 nM sJ1, 5 nM sDl1 or no supplement (control) and expanded for 14 days. RT-PCR was used to determine the steady-state mRNA level for three markers of neural stem cells (Nestin, Nucleostemin and Bmi1). An increase in the expression of all three transcripts compared to control was observed. […] Approximately 5×10^2 NCSC were plated in Morrison media supplemented with either 7.5 nM sJ1, 5 μg/ml α-thrombin, 5 nM sD1, 2 ng/ml BMP2 or no additive (control) for 48 hours. The results are presented as the percent of control (mean±standard deviation of three RT-PCR experiments) performed in triplicate. No change in the steady-state level mRNA levels of the three markers relative to actin was observed.
RT-PCR was performed with 1 μg RNA using the Platinum Taq One Step RT-PCR kit (Invitrogen) as follows: RT (30 minutes at 50° C.), PCR (40 cycles at 94° C. for 15 seconds, at 58° C. for 30 seconds and 72° C. for 1 minute). All amplified cDNA was visualized with ethidium bromide followed by 1.5% agarose gel electrophoresis. RT-PCR analysis of fgf and gapdh was performed as previously described elsewhere herein. […] Each reaction product was measured as a ratio relative to the amplification product of actin and samples were run in triplicate. […]

NCSC populations = experiment: Clonogenic differentiation and serial subcloning assays of NCSC clones (secondary NCSC); format: cell-based, murine; parameters: G / Sm / G + Sm: unit not given here; conditions: for NCSC clones that did not express either gliogenic or neurogenic differentiation markers: after 7 days of expansion; for clones that were trifatent (neurons, glial, and smooth muscle progeny): secondary clones established from treated founder clones
Procedure: Clonogenic assays were performed as described (Stemple et al., 1992, Cell 71:973-985). Briefly, populations of murine NCSC were plated at a clonal density and maintained for a maximum of 14 days in Morrison media supplemented with 15% chick embryo extract (Morrison et al., 1999, Cell 96:737-749). The resulting clones were fixed in an acetic acid:ethanol solution (2:1) and stained with antibodies against peripherin (Chemicon) to detect neurons, smooth muscle actin (Sigma) to detect myofibroblasts, and GFAP (Chemicon) to detect Schwann cells. Clones were scored based on the appearance of just one phenotypic representative. The number and percentage of clones containing neurons only (N), Schwann cells only (S), myofibroblasts only (M), N+S, N+M, N+S+M, and S+M were scored at day 14 unless otherwise stated. The production of each representative phenotype in each individual clone was also scored to complement the clonal population assay.
In order to generate secondary NCSC populations, founder clones originating from differentiating E10 clones at distinct time points during NCSC differentiation (days 2 through 18) were treated with trypsin and replated at a cell clonal density using methods previously described (Kubu et al., 2000, Genomics 70:150-152). The resulting cells were subjected to immunofluorescence microscopy using both p75^+ and P0^− antibodies (Kubu et al., 2000, Genomics 70:150-152) and the p75^+/P0^− cells identified as putative stem cells. All non-p75^+/P0^− cells were removed from the dish with a tungsten needle. The cultures of secondary NCSC clones were subjected to the clonogenic assay as described above.
Specifically, clonogenic differentiation and serial subcloning assays were performed using NCSC clones incubated with either thrombin, sDl1, sJ1 or TRAP.
Briefly, presented are the number of colonies with the resulting differentiation profiles (mean±SD of three experiments resulting from individual NCSC isolations).
A genetic approach was used to determine whether thrombin, TRAP, or sJ1 were able to promote cell cycle progression in the NCSC population. Thus, a dnFGFR1 construct was expressed in the NSC cells and the clonogenic differentiation assay conducted in the presence of either sJ1, thrombin or no additional supplement.

[4] = colonies from secondary NCSC, mean±SD
[5] = dnFGFR1-transduced NCSC, trifatent
[6] = glial-only colonies from secondary NCSC, mean±SD
[7] = secondary stem cells from NCSC founders after ten days of expansion, mean±SD
[8] = smooth muscle-only colonies from secondary NCSC, mean±SD
[9] = trifatent colonies from secondary NCSC, mean±SD

| Molecule | expression of the FGF1.A transcript [1] | F/SP × 10^2 [2] | Cells/Founder (F) [2] | Secondary Spheres (SP) [2] | secondary spheres per primary sphere [2] | relative expression of Nestin, Nucleostemin and Bmi1 transcripts [3] | NCSC clones that did not express either gliogenic or neurogenic differentiation markers (NCSC populations) [%] | G + Sm (NCSC populations; [4]) | N + G (NCSC populations; [4]) | N + Sm (NCSC populations; [4]) | G (NCSC populations; dnFGFR1-transduced NCSC) | G + Sm (NCSC populations; dnFGFR1-transduced NCSC) | N + G (NCSC populations; dnFGFR1-transduced NCSC) | N + Sm (NCSC populations; dnFGFR1-transduced NCSC) | Secondary NSSC/Founder (NCSC populations; dnFGFR1-transduced NCSC) | G (NCSC populations; [6]) | clones that were trifatent (neurons, glial, and smooth muscle progeny) (NCSC populations) [%] | Secondary NSSC/Founder (NCSC populations; [7]) | Sm (NCSC populations; [8]) | N + G + Sm (NCSC populations; [9]) | further results |
| --- | --- | --- | --- | --- | --- | --- | --- | --- | --- | --- | --- | --- | --- | --- | --- | --- | --- | --- | --- | --- | --- |
| Thrombin | induced | 13%* | 488 ± 166* | 64 ± 11 | 55±14 | elevated | 75±11 | 2.0 ± 2.1 | 3.93 ± 3.8 | 4.5 ± 2.1 | 1.7 ± 3.1 | 6.9 ± 8.3 | 9.8 ± 3.2 | 5.5 ± 1.5 | 13.5 ± 2.9 | 0 ± 0 | 86.8±2.1 | 36.8 ± 6.3 | 2.6 ± 1.01 | 86.8 ± 2.1 | N (NCSC populations; dnFGFR1-transduced NCSC): 5.9 ± 1.7; Sm (NCSC populations; dnFGFR1-transduced NCSC): 24.13 ± 1.4; N + G + Sm (NCSC populations; [5]): 46.0 ± 13.6 |
| sJ1: Soluble Jagged1, amino acid residues from about 1 to 1067 (SEQ ID NO:3) of full-length Jagged1 | induced | 10%* | 527 ± 170* | 55 ± 14 | 64±11 | elevated | 84±7 | 3.4 ± 2.8 | 7.0 ± 5.6 | 1.5 ± 1.7 | 9.3 ± 2.7 | 10.3 ± 6.3 | 7.2 ± 4.5 | 6.2 ± 7.0 | 13.5 ± 4.7 | 7.8 ± 1.4 | 74.1±9 | 26.2 ± 6 | 6.2 ± 1.0 | 74.1 ± 9.1 | Sm (NCSC populations; dnFGFR1-transduced NCSC): 16.4 ± 8.5; N + G + Sm (NCSC populations; [5]): 48.0 ± 11.8 |
| B1 | did not influence | 2.0% | 150 ± 69* | 3 ± 3 | 3±3 |  | 0±0 | 3.4 ± 2.8 | 0 | 0 |  |  |  |  |  | 72 ± 6.4 | 0.5 | 0.6 ± 1.0 | 20.5 ± 6.5 | 0.5 ± 0.7 | levels of Nestin, Nucleostemin and Bmi1 transcripts ([3]; p75+/P0- neural crest stem cells, 24 and 48 hours): sharply decreased |
